Assay results taken from patent US20020049257A1, “Antibacterial composition” (priority 2000, published 2002).

Legend:
Corynebacteria = test: MIC against Corynebacteria (average / overall); assay type: cell-based, Corynebacterium; conditions: malodor forming axilla bacteria
From the text: (§1) The different bacterial strains had been isolated from the human axilla by current microbiological practice. They were taxonomically identified by cell morphology, gram-reaction, and biochemical tests included in the Api coryne test kit (BioMerieux, France). Strain Staphylococcus epidermidis Ax25 was identified by fatty acid methyl ester analysis (FAME; German type strain collection DSMZ, Germany). The strains were maintained on Tryptic soy broth plates, this standard medium being amended with 5 g per Liter of Tween 80 and 1 g of Soybean lecithin. Plates were incubated at 36° C. for a period 48 hours. The bacteria were then swabbed from the plates and suspended in 4 ml of Muller-Hinton broth amended with 100 mg of Tween 80 per Liter (MH-Tween) and incubated again at 360 C for 16 hours. Following incubation the bacterial suspensions were diluted in MH-Tween to obtain a final cell density of 10^6 colony forming units per ml. For each fragrance material four microtiter plates were used in the example, each microtiter plate having 8 rows, A-H, and 12 columns, 1-12. […]
Since sandela is known to be a mixture of different reaction products, commercial sandela was subjected to a distillation process. […] The different fractions were evaluated for their antimicrobial activity (Table 6) with the method described in example 1. […]

[1] = tested on: Ax 11 Corynebacterium jeikeium; test: MIC microtiter plate test, axilla strain Ax 11; assay type: cell-based; conditions: at least 80% growth inhibition, 24 h, 36° C.; Table 1
From the text: as §1, with “1-12. To each column a diluted suspension of a different test organism was distributed, 100 μl per well. 1% stock solutions of the fragrance materials were then prepared in MH-Tween broth. The fragrance material was dispersed by ultrasonication into the aqueous medium to obtain a homogenous emulsion. 100 μl per well of this emulsion was then added to the first row of the microtiter plates already containing the target organisms. Serial dilution series were then prepared starting at row A and continuing until row G, each time removing 100 μl from a well and transferring it to the next well. In this way fragrance concentrations of 0.5%, 0.25%, 0.125%, 0.0625%, 0.03125%, 0.0156%, and 0.0078% were tested for their antibacterial efficacy. The reference compound Triclosan was tested at 16-fold lower concentrations. The plates were covered with plastic films and incubated for 24 h at 36° C. with shaking at 250 rpm. The turbidity developing in the microtiter plates was then examined after 24 h to determine microbial growth.” for “1-12.”

[2] = tested on: Brevibacterium epidermidis DSMZ 9586; test: MIC against Brevibacterium epidermidis; assay type: cell-based; conditions: DSMZ 9586, method of Example 1
From the text: (§2) The different bacterial strains had been isolated from the human axilla by current microbiological practice. They were taxonomically identified by cell morphology, gram-reaction, and biochemical tests included in the Api coryne test kit (BioMerieux, France). Strain Staphylococcus epidermidis Ax25 was identified by fatty acid methyl ester analysis (FAME; German type strain collection DSMZ, Germany). The strains were maintained on Tryptic soy broth plates, this standard medium being amended with 5 g per Liter of Tween 80 and 1 g of Soybean lecithin. Plates were incubated at 36° C. for a period 48 hours. The bacteria were then swabbed from the plates and suspended in 4 ml of Muller-Hinton broth amended with 100 mg of Tween 80 per Liter (MH-Tween) and incubated again at 360 C for 16 hours. Following incubation the bacterial suspensions were diluted in MH-Tween to obtain a final cell density of 10^6 colony forming units per ml. For each fragrance material four microtiter plates were used in the example, each microtiter plate having 8 rows, A-H, and 12 columns, 1-12. To each column a diluted suspension of a different test organism was distributed, 100 μl per well. 1% stock solutions of the fragrance materials were then prepared in MH-Tween broth. The fragrance material was dispersed by ultrasonication into the aqueous medium to obtain a homogenous emulsion. 100 μl per well of this emulsion was then added to the first row of the microtiter plates already containing the target organisms. Serial dilution series were then prepared starting at row A and continuing until row G, each time removing 100 μl from a well and transferring it to the next well. In this way fragrance concentrations of 0.5%, 0.25%, 0.125%, 0.0625%, 0.03125%, 0.0156%, and 0.0078% were tested for their antibacterial efficacy. The reference compound Triclosan was tested at 16-fold lower concentrations. The plates were covered with plastic films and incubated for 24 h at 36° C. with shaking at 250 rpm. The turbidity developing in the microtiter plates was then examined after 24 h to determine microbial growth. The minimal concentration of fragrance inhibiting the growth of an organism by at least 80% was determined as the minimal inhibitory concentration (MIC).
A selection of perfume compounds were tested against Brevibacterium epidermidis DSMZ 9586 (German Collection of Microorganisms and Cell Cultures) with the method described in Example 1.

[3] = tested on: Ax 15 Corynebacterium jeikeium; test: MIC microtiter plate test, axilla strain Ax 15; assay type: cell-based; conditions: for Minimal inhibitory concentration (MIC) Ax 15: at least 80% growth inhibition, 24 h, 36° C., Table 1; for Bacteriostatic activity Corynebact. Ax 15: at least 80% reduction in growth during 24 hours, Table 7
From the text: as §2
(§3) Ax 25 was identified as Staphylococcus epidermidis by FAME analysis. Identification with the Api Coryne test kit yielded the following species assignments for the remainder of the strains: Ax 26 Corynebacterium sp.; Ax 3 Corynebacterium bovis; Ax 7 Corynebacterium group G; Ax 10 Corynebacterium jeikeium; Ax 11 Corynebacterium jeikeium; Ax 12 Corynebacteriurn jeikeium; Ax 15 Corynebacterium jeikeium; Ax 20 Corynebacterium striatum/amycolatum; and Ax 19 Corynebacterium jeikeium. The strains were isolated from the axilla of 8 human volunteers. Based on biochemical tests and colony morphology all strains were distinct from each other, even the several strains all belonging to Corynebacterium jeikelurn.

[4] = tested on: Propionibacterium acnes DSMZ1897; test: MIC against Propionibacterium acnes, anaerobic, 72 hours; assay type: cell-based; conditions: DSMZ1897, anaerobic conditions
[5] = tested on: Ax 7 Corynebacterium group G; test: MIC microtiter plate test, axilla strain Ax 7; assay type: cell-based; conditions: for Minimal inhibitory concentration (MIC) Ax 7: at least 80% growth inhibition, 24 h, 36° C., Table 1
From the text: as §2, §3

[6] = tested on: Ax 3 Corynebacterium bovis; test: MIC microtiter plate test, axilla strain Ax 3; assay type: cell-based; conditions: at least 80% growth inhibition, 24 h, 36° C.; Table 1
From the text: as §2, with “The minimal concentration of fragrance inhibiting the growth of an organism by at least 80% was determined as the minimal inhibitory concentration (MIC).” left out

[7] = tested on: Ax 10 Corynebacterium jeikeium; test: MIC microtiter plate test, axilla strain Ax 10; assay type: cell-based; conditions: at least 80% growth inhibition, 24 h, 36° C.; Table 1
From the text: as §1, with “1-12. To each column a diluted suspension of a different test organism was distributed, 100 μl per well. 1% stock solutions of the fragrance materials were then prepared in MH-Tween broth. The fragrance material was dispersed by ultrasonication into the aqueous medium to obtain a homogenous emulsion.” for “1-12.”

[8] = tested on: Ax 20 Corynebacterium striatum/amycolatum; test: MIC microtiter plate test, axilla strain Ax 20; assay type: cell-based; conditions: at least 80% growth inhibition, 24 h, 36° C.; Table 1
From the text: as §2, with “The minimal concentration of fragrance inhibiting the growth of an organism by at least 80% was determined as the minimal inhibitory concentration (MIC).” left out

[9] = tested on: Ax 12 Corynebacteriurn jeikeium; test: MIC microtiter plate test, axilla strain Ax 12; assay type: cell-based, Corynebacterium jeikeium; conditions: at least 80% growth inhibition, 24 h, 36° C.; Table 1
From the text: as §2, with “The minimal concentration of fragrance inhibiting the growth of an organism by at least 80% was determined as the minimal inhibitory concentration (MIC).” left out

[10] = tested on: Ax 26 Corynebacterium sp.; test: MIC microtiter plate test, axilla strain Ax 26; assay type: cell-based; conditions: for Minimal inhibitory concentration (MIC) Ax 26: at least 80% growth inhibition, 24 h, 36° C., Table 1; for Bacteriostatic activity Corynebact. Ax 26: at least 80% reduction in growth during 24 hours, Table 7
From the text: as §2
as §3, with “Based on biochemical tests and colony morphology all strains were distinct from each other, even the several strains all belonging to Corynebacterium jeikelurn.” left out

[11] = tested on: Ax 19 Corynebacterium jeikeium; test: MIC microtiter plate test, axilla strain Ax 19; assay type: cell-based; conditions: at least 80% growth inhibition, 24 h, 36° C.; Table 1
From the text: as §1, with “1-12. To each column a diluted suspension of a different test organism was distributed, 100 μl per well. 1% stock solutions of the fragrance materials were then prepared in MH-Tween broth. The fragrance material was dispersed by ultrasonication into the aqueous medium to obtain a homogenous emulsion.” for “1-12.”

Compound | Minimal inhibitory concentration (MIC) Ax 11 [1] | MIC for Brevibacterium epidermidis [2] | Minimal inhibitory concentration (MIC) Ax 15 [3] | MIC for Propionibacterium acnes [4] | Minimal inhibitory concentration (MIC) Ax 7 [5] | Minimal inhibitory concentration (MIC) Ax 3 [6] | Minimal inhibitory concentration (MIC) Ax 20 [8] | Minimal inhibitory concentration (MIC) Ax 12 [9] | Bacteriostatic activity Corynebact. Ax 15 [3] | further results
COC1CC(C2CC3CC2C(C)C3(C)C)CCC1O (stereo not drawn) [2-methoxy-4-(5,5,6-trimethylbicyclo[2.2.1]hept-2-yl)cyclohexan-1-ol] |  |  |  |  |  |  |  |  |  | activity against Corynebacteria (in words) (Corynebacteria): highest activity
Oc1cc(Cl)ccc1Oc1ccc(Cl)cc1Cl [Triclosan, 2,4,4′-trichloro-2′-hydroxy-diphenyl-ether] | 0.0029 % weight/ volume | 0.003125 % w/v | 0.0029 % weight/ volume | 0.00039 % w/v | 0.0029 % weight/ volume |  |  |  |  | Bacteriostatic activity Corynebact. Ax 7 ([5]; at least 80% reduction in growth during 24 hours, Table 7): 0.0025 percent (w/v)
CC1=CCC(CCC(C)C(C)O)C1(C)C (stereo not drawn) [Sandalore] | 0.1250 % weight/ volume | 0.0937 % w/v |  | 0.25 % w/v | 0.1250 % weight/ volume | 0.1250 % weight/ volume | 0.1250 % weight/ volume | 0.1250 % weight/ volume |  | Minimal inhibitory concentration (MIC) Ax 10 [7]: 0.1250 % weight/ volume; Minimal inhibitory concentration (MIC) Ax 26 [10]: 0.1250 % weight/ volume
CCC(=CCC1CC=C(C)C1(C)C)CO (stereo not drawn) [Radjanol] |  | 0.03125 % w/v |  |  | 0.0625 % weight/ volume |  |  |  |  | 
CC(C)=CCCC(C)=CCCC(C)=CCO [Farnesol, 3,7,11-trimethyl-2,6,10-dodecatrien-1-ol] |  | 0.0078 % w/v | 0.0156 % weight/ volume | 0.0078 % w/v |  | 0.0156 % weight/ volume | 0.0137 % weight/ volume | 0.0137 % weight/ volume | 0.0156 percent (w/v) | Minimal inhibitory concentration (MIC) Ax 10 [7]: 0.0078 % weight/ volume; Minimal inhibitory concentration (MIC) Ax 19 [11]: 0.0156 % weight/ volume
COC1CC(C2CC3CC2C(C)C3(C)C)CCC1O (single isomer, unassigned) [Peak B] |  |  |  |  |  |  |  |  | 0.0028 percent (w/v) | Bacteriostatic activity Corynebact. Ax 26 [10]: 0.0016 percent (w/v)
COC1CC(C2CC3CC2C(C)C3(C)C)CCC1O (single isomer, unassigned) [Peak A] |  |  |  |  |  |  |  |  | 0.0048 percent (w/v) | Bacteriostatic activity Corynebact. Ax 26 [10]: 0.0028 percent (w/v)
COC1CCC(C2CC3CC2C(C)C3(C)C)CC1O (stereo not drawn) [2-methoxy-5-(5,5,6-trimethyl-bicyclo[2.2.1]hept-2-yl)cyclohexan-1-ol] |  |  |  |  |  |  |  |  |  | activity against Corynebacteria (in words) (Corynebacteria): highest activity
CC1=CCC(/C=C\C(C)C(C)O)C1(C)C (stereo not drawn) [Ebanol] | 0.2500 % weight/ volume |  | 0.2500 % weight/ volume |  | 0.1250 % weight/ volume | 0.1250 % weight/ volume | 0.1250 % weight/ volume | 0.2500 % weight/ volume |  | Minimal inhibitory concentration (MIC) Ax 26 [10]: 0.1250 % weight/ volume
